# In patent US20240108559A1, “TOPICAL COMPOSITIONS CONTAINING SYNTHETIC ESTERS OF SINAPINIC ACID AND METHODS FOR TREATING KERATIN SURFACES” (ELC MANAGEMENT LLC, priority 2017, published 2024):
# Where a name gives a salt, the structure may show the parent alone.
# Legend:
# [1] = UV absorbance peak stability over time and temperature (UV visible spectroscopy); assay type: physicochemical; settings: 1.4 and 14 ppm in 50/50 water and butylene glycol, time 0, week 1, 2, 4, 25°, 40°, 50° C., FIG. 1, FIG. 2
# Method: Sinapoyl malate and CAPE were evaluated for UV absorption. 50 and 100 ppm of each compound was dissolved in water and a second sample set of isopropanol. Additional samples of sinapyl malate and CAPE were prepared by dissolving 0.025% and 0.05% of each ingredient in a 50/50 mixture of water and butylene glycol. Further dilution to obtain a concentration of 1.4 ppm and 14 ppm was performed.
# The samples were tested for UV absorption across the UV range by measuring with an Agilent 8453 UV visible spectroscopy system at wavelengths ranging across 200 to 450 nm at time 0, week 1, week 2, and week 4. The term “NA” means that a previously observed absorbance peak was no longer visible. The term “peak” means the two highest absorbance peaks in the UV spectrum. The term “valley” means the two lowest point between the absorbance peaks. In the case where there is only one peak or valley it means that the other, previously observed peak or valley was deteriorated at the time and temperature of the stability study. In the case where all peaks and valleys are indicated “NA” it means that the sample deteriorated entirely and no longer absorbed in the UV range at all.
melting point [°C],SMILES,stability of UV absorbance peaks over time and temperature [1]
–,COc1cc(/C=C/C(=O)OC(CC(=O)O)C(=O)O)cc(OC)c1O (stereo not drawn) [Sinapoyl malate],more stable over time and temperature
–,"O=C(/C=C/c1ccc(O)c(O)c1)OCCc1ccccc1 [CAPE, reference compound]",much less stability over time and temperature
55 to 65,COc1cc(/C=C/C(=O)OC(CC(=O)O)C(=O)O)cc(OC)c1O (stereo not drawn) (as salt: malate) [Sinapoyl malate],–
